From article PMC3605511, “Tumor P-Glycoprotein Correlates with Efficacy of PF-3758309 in in vitro and in vivo Models of Colorectal Cancer” (Frontiers in Pharmacology, 2013)
Values joined by “and” are separate entries in the source; they are usually repeats but may differ in a detail not shown here. Identical values can stand only once. Like-named read-outs stand apart in the source and are kept apart here.

Columns and labels:
MDCKII-LE cells = assay: MDCKII-LE permeability assay; format: in vitro ADME; settings: MDCKII-LE; A → B <5 × 10^−6 cm/s low, 5–15 moderate, >15 high
Protocol: (§1) Permeability and transporter substrate assays were performed as previously published (Feng et al., [2008]; Callegari et al., [2011]; Di et al., [2011]). Permeability assays were conducted in MDCKII-LE cells, which were generated by isolation of a subpopulation of cells with low expression of endogenous P-gp (Feng et al., [2008]; Callegari et al., [2011]; Di et al., [2011]). The use of MDCKII-LE cells are used to measure the passive permeability of compounds in place of MDCK wild-type or Caco-2 cells since both MDCK wild-type and Caco-2 cells are known to have some level of endogenous transporter expression which can affect the permeability measurement. P-gp efflux was determined in MDR1-MDCK cells and BCRP efflux was measured in BCRP-MDCKII-LE cells.
(§2) MDCKII-LE, MDR1-MDCK, and BCRP-MDCKII-LE transwell assays were performed to determine the permeability and transporter efflux of PF-309 in vitro (Table 1). The permeability of PF-309 was determined to be 0.9 × 10^−6 cm/s in MDCKII-LE cells (mean of two replicates is presented). As previously described (Feng et al., [2008]), in MDCKII-LE cells a compound with a donor to receiver (A → B) flux of <5 × 10^−6 cm/s is classified as having low permeability. Compounds with A → B flux of 5–15 × 10^−6 cm/s are classified as moderately permeable and compounds >15 × 10^−6cm/s are considered to be highly permeable.

[1] = MDCKII-LE permeability assay; format: in vitro ADME; settings: dog, MDCK; MDCKII-LE cells, mean of two replicates
Protocol: as §1, §2

[2] = End of study tumor and plasma concentrations (LC/MS/MS); format: in vivo, mice; settings: for Plasma concentration / Tumor concentration / Tumor: plasma ratio / concentration at 1 h / Kp at 1 h: end of study, 1 h post treatment, individual animals; for Plasma concentration / Tumor concentration / concentration at 1 h: 25 mg/kg PO BID; for concentration at 1 h: po; for Kp at 1 h: tumor and plasma, read-out: Tumor: plasma ratio
Protocol: Plasma and tumor samples were collected 1 h post treatment at the end of therapeutic studies or 6 h post treatment for P-gp tumor concentration studies. PF-309 was measured in mouse plasma and tumor tissue using a validated LC/MS/MS assay carried out by the University of Colorado Cancer Center Pharmacology Shared Resource. Positive ion electrospray ionization (ESI) mass spectra were obtained with a 3200 QTrap triple quadrupole mass spectrometer (Applied Biosystems Inc., Foster City, CA, USA) with a turboionspray source interfaced to an Agilent 1200 Series binary HPLC system (Agilent Technologies Inc., Santa Clara, CA, USA), and a HTC-PAL auto-sampler (LEAP Technologies, Carrboro, NC, USA). Samples were chromatographed with a Waters Sunfire 2.5 μm C18 column (4.6 × 50 mm; Waters Corp., Milford, MA, USA) with a Phenomenex C18 filter frit guard cartridge (Phenomenex, Torrance, CA, USA). The LC elution was done with a gradient starting at 10% Acetonitrile with 0.1% formic acid:90% 0.1% formic acid held for 1.5 min followed by a 1-min linear gradient to 98% Acetonitrile with 0.1% formic acid: 2% 0.1% formic acid at a flow rate of 750 μl/min and a sample volume of 50 μl. The total analysis time was 5.5 min.
The mass spectrometer settings were: source temperature, 600°C, ion spray voltage, 4500 V, source gas, 50, curtain gas (CUR), 10, collision gas (CAD), low, and needle position 3. Transition specific parameters used were 491.2 → 284.2/491.2 → 148.3/372.2 → 176.1: declustering potential (DP), 46.32/46.54/56.86 V, exit potential (EP), 6.45/3.23/4.08 V, collision cell entrance potential (CEP), 25.92/27.80/20.56 V, collision energy (CE), 40.00/53.10/32.75 V, collision cell exit potential (CXP), 0.42/1.47/2.72 V. Samples were quantified by the internal standard reference method in the MRM mode by monitoring for PF-3758309 transitions of m/z 491.2 → 284.2 and 491.2 → 148.3, and for the internal standard (trazodone) of m/z 372.2 → 176.1. Unknown, standard and quality control samples were extracted from mouse plasma or tumor homogenates (100 mg/ml) by the sequential addition of 5 μl 500 ng/ml internal standard (trazodone), 250 μl acetonitrile:methanol (3:1) to 50 μl plasma/tumor homogenate. Samples were then vortexed for 5 min followed by centrifugation for 10 min at 17,000 rpm. 200 μl of supernatant was then transferred to a microcentrifuge tube followed by the addition of 400 μl 0.1% formic acid followed by vortexing (5 min) and centrifugation (5 min at 13,300 rpm) and the supernatant collected (600 μl) and transferred to auto-sampler vials. The average accuracy and precision based on analysis of quality control samples was 93.1 and 98.7% for plasma samples (range: 1–2500 ng/mL) and 91.9 and 98.2% for tumor (range: 5–5000 ng/mL).
In addition to the cell line xenografts, we also treated 12 different patient derived tumor xenograft (PDTX) CRC models with PF-309 (Figure 6). We were unable to assess how ABCB1 gene expression correlated with efficacy in these models. The PDTX models are propagated in vivo, are not immortalized, and are not grown in in vitro culture. Therefore, we have observed some changes in ABCB1 gene expression in some of our models over time and the direction of the change is not consistent (data not shown). In lieu of analyzing gene expression profiles, we sought to determine if tumor concentration correlated with in vivo response. Tumor and plasma sample pairs were collected from animals at the end of study for eight tumor models (three cell line xenografts and five PDTX models) and concentrations of PF-309 were measured. […] Significant correlations (p < 0.003) were found between both tumor concentration and response and tumor to plasma ratios and response (Table 3).

With `Cc1nc(Nc2n[nH]c3c2CN(C(=O)N[C@H](CN(C)C)c2ccccc2)C3(C)C)c2sccc2n1` [PF-309] the permeability classification (MDCKII-LE cells) was “poorly permeable”, the Papp A→B [1] was 0.9 ×10⁻⁶ cm/s and the Plasma concentration ([2]; CUCRC006 model, 25 mg/kg) was 24.4 ng/mL. For the same compound, the Tumor concentration ([2]; CUCRC006 model, 25 mg/kg) was 3.4 ng/g, the “Tumor: plasma ratio” value ([2]; CUCRC006 model) was 0.14 and the Plasma concentration ([2]; CUCRC026 model, 25 mg/kg) was 25.4 ng/mL and 114 ng/mL and 69.3 ng/mL and 184 ng/mL. For the same compound, the Tumor concentration ([2]; CUCRC026 model, 25 mg/kg) was 6.4 ng/g and 14.5 ng/g and 22.7 ng/g and 16.8 ng/g, the “Tumor: plasma ratio” value ([2]; CUCRC026 model) was 0.25 and 0.13 and 0.33 and 0.09 and the Plasma concentration ([2]; CUCRC036 model, 25 mg/kg) was 40.6 ng/mL and 110 ng/mL and 81.3 ng/mL. For the same compound, the Tumor concentration ([2]; CUCRC036 model, 25 mg/kg) was 65.7 ng/g and 30.7 ng/g and 47.6 ng/g, the “Tumor: plasma ratio” value ([2]; CUCRC036 model) was 1.62 and 0.28 and 0.59 and the Plasma concentration ([2]; CUCRC042 model, 25 mg/kg) was 1.17 ng/mL and 4.58 ng/mL. For the same compound, the Tumor concentration ([2]; CUCRC042 model, 25 mg/kg) was 29.6 ng/g, the “Tumor: plasma ratio” value ([2]; CUCRC042 model) was 29.8 and 6.46 and the Plasma concentration ([2]; CUCRC047 model, 25 mg/kg) was 98.7 ng/mL. The Tumor concentration ([2]; CUCRC047 model, 25 mg/kg) was 7.5 ng/g, the “Tumor: plasma ratio” value ([2]; CUCRC047 model) was 0.08 and the Plasma concentration ([2]; Colo201 model, 25 mg/kg) was 11.7 ng/mL. For the same compound, the Tumor concentration ([2]; Colo201 model, 25 mg/kg) was 140.4 ng/g and 11.1 ng/g, the “Tumor: plasma ratio” value ([2]; Colo201 model) was 6.72 and 0.95 and the Plasma concentration ([2]; GEO model, 25 mg/kg) was 5.48 ng/mL and 54.1 ng/mL and 76.6 ng/mL. The Tumor concentration ([2]; GEO model, 25 mg/kg) was 10.2 ng/g and 15.9 ng/g and 22.9 ng/g, the “Tumor: plasma ratio” value ([2]; GEO model) was 1.9 and 0.3 and the Plasma concentration ([2]; HCT15 model, 25 mg/kg) was 10.0 ng/mL and 13.2 ng/mL and 49.0 ng/mL. The Tumor concentration ([2]; HCT15 model, 25 mg/kg) was 8.9 ng/g and 8.0 ng/g, the “Tumor: plasma ratio” value ([2]; HCT15 model) was 0.68 and 0.67 and 0.16 and the Cmax ([2]; mouse, plasma, oral, 25 mg/kg, mice, Cmax (1 h), read-out: total plasma concentrations at the Cmax) was 10 to 100 nM. For the same compound, the concentration at 1 h ([2]; mouse, plasma, 25 mg/kg, CUCRC006 model, read-out: Plasma concentration) was 42.4 ng/mL, the concentration at 1 h ([2]; mouse, plasma, 25 mg/kg, CUCRC047 model, read-out: Plasma concentration) was 110 ng/mL and the concentration at 1 h ([2]; mouse, plasma, 25 mg/kg, Colo201 model, read-out: Plasma concentration) was 20.9 ng/mL. The Kp at 1 h ([2]; mouse, oral, 25 mg/kg, CUCRC006 model) was 0.08, the Kp at 1 h ([2]; mouse, oral, 25 mg/kg, CUCRC047 model) was 0.04 and the concentration at 1 h ([2]; mouse, tumor, 25 mg/kg, CUCRC006 model, read-out: Tumor concentration) was 3.6 ng/g. It also gave a concentration at 1 h ([2]; mouse, tumor, 25 mg/kg, CUCRC042 model, read-out: Tumor concentration) of 34.8 ng/g, a concentration at 1 h ([2]; mouse, tumor, 25 mg/kg, CUCRC047 model, read-out: Tumor concentration) of 4.4 ng/g and a concentration at 1 h ([2]; mouse, tumor, 25 mg/kg, HCT15 model, read-out: Tumor concentration) of 6.8 ng/g.
